# Measurements from ChEMBL document CHEMBL3046285, “Design and synthesis of new 1,2-diaryl-4,5,6,7-tetrahydro-1H-benzo[d] imidazoles as selective cyclooxygenase (COX-2) inhibitors” (Med Chem Res, 2012).
# Biological target: T1, Prostaglandin G/H synthase 1 (Ovis aries, UniProt P05979)
# T1 sequence (P05979 whole entry): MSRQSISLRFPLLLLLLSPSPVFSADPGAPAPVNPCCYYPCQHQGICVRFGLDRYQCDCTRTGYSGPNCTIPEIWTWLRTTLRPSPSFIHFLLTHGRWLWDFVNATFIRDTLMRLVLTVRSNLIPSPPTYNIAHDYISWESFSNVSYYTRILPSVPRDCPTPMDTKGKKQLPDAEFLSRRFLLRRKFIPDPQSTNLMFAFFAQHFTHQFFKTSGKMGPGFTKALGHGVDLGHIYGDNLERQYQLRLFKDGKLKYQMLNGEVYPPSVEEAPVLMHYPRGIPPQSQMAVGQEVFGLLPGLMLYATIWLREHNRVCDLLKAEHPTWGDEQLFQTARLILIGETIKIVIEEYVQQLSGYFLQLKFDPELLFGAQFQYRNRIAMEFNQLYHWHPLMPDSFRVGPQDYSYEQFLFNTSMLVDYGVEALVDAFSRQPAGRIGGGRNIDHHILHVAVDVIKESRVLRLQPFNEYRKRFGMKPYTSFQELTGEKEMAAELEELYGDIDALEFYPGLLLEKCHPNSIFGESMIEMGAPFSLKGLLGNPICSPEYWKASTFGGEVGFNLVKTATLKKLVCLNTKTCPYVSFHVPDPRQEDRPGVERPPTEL
# Experiment: Inhibition of Ovis aries (sheep) COX1 using arachidonic acid as substrate using cyclic naphthalene hydrazide by chemiluminescence assay
row,Structure (SMILES),IC50 [µM]
1,COc1ccc(-n2c(-c3ccc(S(C)(=O)=O)cc3)nc3c2CCCC3)cc1,42.2
2,CC(=O)Nc1ccc(-n2c(-c3ccc(S(C)(=O)=O)cc3)nc3c2CCCC3)cc1,36.1
3,Cc1ccc(-n2c(-c3ccc(S(C)(=O)=O)cc3)nc3c2CCCC3)cc1,40.1
4,CS(=O)(=O)c1ccc(-c2nc3c(n2-c2ccccc2)CCCC3)cc1,56.5
5,CS(=O)(=O)c1ccc(-c2nc3c(n2-c2ccc(Cl)cc2)CCCC3)cc1,61.6
6,CS(=O)(=O)c1ccc(-c2nc3c(n2-c2ccc(F)cc2)CCCC3)cc1,55.7
